In PubChem BioAssay (NCI):
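Exposure lasted 48 hours, with cells grown in 96-well plates and compounds tested at five concentrations. TGI denotes the concentration required for complete inhibition of growth.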

Key:
Test in all cases: NCI-60 cell line screen, 48 h
SF-539 CNS = tested on: SF-539 CNS
MALME-3M melanoma = tested on: MALME-3M melanoma
MDA-N = tested on: MDA-N
DU-145 prostate = tested on: DU-145 prostate
HCT-116 colon = tested on: HCT-116 colon
SN12C renal = tested on: SN12C renal
PC-3 prostate = tested on: PC-3 prostate
OVCAR-5 ovarian = tested on: OVCAR-5 ovarian
OVCAR-4 ovarian = tested on: OVCAR-4 ovarian
EKVX NSCLC = tested on: EKVX NSCLC
K-562 leukemia = tested on: K-562 leukemia
NCI-H23 lung = tested on: NCI-H23 lung
SK-MEL-5 melanoma = tested on: SK-MEL-5 melanoma
COLO 205 colon = tested on: COLO 205 colon
HCC-2998 colon = tested on: HCC-2998 colon
NCI/ADR-RES ovarian = tested on: NCI/ADR-RES ovarian
SF-268 CNS = tested on: SF-268 CNS
UO-31 renal = tested on: UO-31 renal
SK-MEL-2 melanoma = tested on: SK-MEL-2 melanoma
T-47D breast = tested on: T-47D breast
HOP-92 NSCLC = tested on: HOP-92 NSCLC
CAKI-1 renal = tested on: CAKI-1 renal
A549 NSCLC = tested on: A549 NSCLC
SW-620 colon = tested on: SW-620 colon
RXF 393 renal = tested on: RXF 393 renal
SF-295 CNS = tested on: SF-295 CNS
UACC-257 melanoma = tested on: UACC-257 melanoma
CCRF-CEM leukemia = tested on: CCRF-CEM leukemia
MDA-MB-435 = tested on: MDA-MB-435
OVCAR-8 ovarian = tested on: OVCAR-8 ovarian
SK-MEL-28 melanoma = tested on: SK-MEL-28 melanoma
IGROV1 ovarian = tested on: IGROV1 ovarian
HL-60(TB) leukemia = tested on: HL-60(TB) leukemia
SNB-19 CNS = tested on: SNB-19 CNS
HOP-62 NSCLC = tested on: HOP-62 NSCLC
MOLT-4 leukemia = tested on: MOLT-4 leukemia
MCF7 breast = tested on: MCF7 breast
M14 melanoma = tested on: M14 melanoma
UACC-62 melanoma = tested on: UACC-62 melanoma
NCI-H522 lung = tested on: NCI-H522 lung
LOX IMVI melanoma = tested on: LOX IMVI melanoma
HCT-15 colon = tested on: HCT-15 colon
RPMI-8226 leukemia = tested on: RPMI-8226 leukemia
SR leukemia = tested on: SR leukemia
A498 renal = tested on: A498 renal
SK-OV-3 ovarian = tested on: SK-OV-3 ovarian
HS 578T breast = tested on: HS 578T breast
786-0 renal = tested on: 786-0 renal
SNB-75 CNS = tested on: SNB-75 CNS
OVCAR-3 ovarian = tested on: OVCAR-3 ovarian
KM12 colon = tested on: KM12 colon
BT-549 breast = tested on: BT-549 breast
HT29 colon = tested on: HT29 colon
NCI-H226 lung = tested on: NCI-H226 lung
ACHN renal = tested on: ACHN renal
NCI-H460 lung = tested on: NCI-H460 lung
TK-10 renal = tested on: TK-10 renal
U251 CNS = tested on: U251 CNS
MDA-MB-231 breast = tested on: MDA-MB-231 breast

CCC(=O)Nc1ccc(NCC(=O)Nc2ccc(Cl)cc2)cc1
TGI (SF-539 CNS): 36.8 µM
TGI (MALME-3M melanoma): 34.8 µM
TGI (MDA-N): 35.3 µM
TGI (DU-145 prostate): 35.6 µM
TGI (HCT-116 colon): 30.4 µM
TGI (SN12C renal): 35.3 µM
TGI (PC-3 prostate): 31.8 µM
TGI (OVCAR-5 ovarian): 32.1 µM
TGI (OVCAR-4 ovarian): 33.3 µM
TGI (EKVX NSCLC): 28.2 µM
TGI (K-562 leukemia): > 100 µM
TGI (NCI-H23 lung): 38.9 µM
TGI (SK-MEL-5 melanoma): 30.7 µM
TGI (COLO 205 colon): 35.5 µM
TGI (HCC-2998 colon): 26.7 µM
TGI (NCI/ADR-RES ovarian): 93.6 µM
TGI (SF-268 CNS): 55.4 µM
TGI (UO-31 renal): 78.9 µM
TGI (SK-MEL-2 melanoma): 30.8 µM
TGI (T-47D breast): 29.8 µM
TGI (HOP-92 NSCLC): 33.4 µM
TGI (CAKI-1 renal): 53.7 µM
TGI (A549 NSCLC): 56.5 µM
TGI (SW-620 colon): 74.9 µM
TGI (RXF 393 renal): 35.6 µM
TGI (SF-295 CNS): > 100 µM
TGI (UACC-257 melanoma): 36.8 µM
TGI (CCRF-CEM leukemia): 60.3 µM
TGI (MDA-MB-435): 33.2 µM
TGI (OVCAR-8 ovarian): 94.4 µM
TGI (SK-MEL-28 melanoma): 42.6 µM
TGI (IGROV1 ovarian): 64.4 µM
TGI (HL-60(TB) leukemia): 42.7 µM
TGI (SNB-19 CNS): 42 µM
TGI (HOP-62 NSCLC): 30.7 µM
TGI (MOLT-4 leukemia): 98.2 µM
TGI (MCF7 breast): 29.8 µM
TGI (M14 melanoma): 29.3 µM
TGI (UACC-62 melanoma): 26.6 µM
TGI (NCI-H522 lung): 30.2 µM
TGI (LOX IMVI melanoma): 27.4 µM
TGI (HCT-15 colon): 36.4 µM
TGI (RPMI-8226 leukemia): 70.3 µM
TGI (SR leukemia): 94.1 µM
TGI (A498 renal): 46 µM
TGI (SK-OV-3 ovarian): 64.1 µM
TGI (HS 578T breast): > 100 µM
TGI (786-0 renal): 35.7 µM
TGI (SNB-75 CNS): 64.6 µM
TGI (OVCAR-3 ovarian): 33.6 µM
TGI (KM12 colon): 33 µM
TGI (BT-549 breast): 48.6 µM
TGI (HT29 colon): 28 µM
TGI (NCI-H226 lung): 53.5 µM
TGI (ACHN renal): 27.9 µM

CCOC(=O)C(COS(C)(=O)=O)(COS(C)(=O)=O)C(=O)OCC
TGI (MDA-N): > 100 µM
TGI (DU-145 prostate): > 100 µM
TGI (HCT-116 colon): > 100 µM
TGI (SN12C renal): > 100 µM
TGI (PC-3 prostate): > 100 µM
TGI (OVCAR-4 ovarian): > 100 µM
TGI (K-562 leukemia): > 100 µM
TGI (NCI-H23 lung): > 100 µM
TGI (SK-MEL-5 melanoma): > 100 µM
TGI (COLO 205 colon): > 100 µM
TGI (HCC-2998 colon): > 100 µM
TGI (NCI/ADR-RES ovarian): > 100 µM
TGI (SF-268 CNS): > 100 µM
TGI (UO-31 renal): > 100 µM
TGI (T-47D breast): > 100 µM
TGI (HOP-92 NSCLC): > 100 µM
TGI (A549 NSCLC): > 100 µM
TGI (SW-620 colon): > 100 µM
TGI (RXF 393 renal): > 100 µM
TGI (SF-295 CNS): > 100 µM
TGI (UACC-257 melanoma): > 100 µM
TGI (CCRF-CEM leukemia): > 100 µM
TGI (MDA-MB-435): > 100 µM
TGI (OVCAR-8 ovarian): > 100 µM
TGI (SK-MEL-28 melanoma): > 100 µM
TGI (NCI-H460 lung): > 100 µM
TGI (SNB-19 CNS): > 100 µM
TGI (MOLT-4 leukemia): > 100 µM
TGI (TK-10 renal): > 100 µM
TGI (MCF7 breast): > 100 µM
TGI (M14 melanoma): > 100 µM
TGI (NCI-H522 lung): > 100 µM
TGI (LOX IMVI melanoma): > 100 µM
TGI (HCT-15 colon): > 100 µM
TGI (SR leukemia): > 100 µM
TGI (A498 renal): > 100 µM
TGI (SK-OV-3 ovarian): > 100 µM
TGI (HS 578T breast): > 100 µM
TGI (SNB-75 CNS): > 100 µM
TGI (OVCAR-3 ovarian): > 100 µM
TGI (U251 CNS): > 100 µM
TGI (KM12 colon): > 100 µM
TGI (MDA-MB-231 breast): > 100 µM
TGI (HT29 colon): > 100 µM
TGI (NCI-H226 lung): > 100 µM
TGI (ACHN renal): > 100 µM

CC(C)(CNC(=O)/C(Cl)=C(/Cl)C(=O)O)CNC(=O)/C(Cl)=C(/Cl)C(=O)O
TGI (SF-539 CNS): > 100 µM
TGI (MDA-N): > 100 µM
TGI (DU-145 prostate): > 100 µM
TGI (HCT-116 colon): > 100 µM
TGI (PC-3 prostate): > 100 µM
TGI (OVCAR-5 ovarian): > 100 µM
TGI (OVCAR-4 ovarian): > 100 µM
TGI (EKVX NSCLC): > 100 µM
TGI (K-562 leukemia): > 100 µM
TGI (SK-MEL-5 melanoma): > 100 µM
TGI (COLO 205 colon): 35.6 µM
TGI (HCC-2998 colon): > 100 µM
TGI (NCI/ADR-RES ovarian): > 100 µM
TGI (UO-31 renal): > 100 µM
TGI (SK-MEL-2 melanoma): > 100 µM
TGI (T-47D breast): > 100 µM
TGI (HOP-92 NSCLC): > 100 µM
TGI (CAKI-1 renal): > 100 µM
TGI (A549 NSCLC): > 100 µM
TGI (SW-620 colon): > 100 µM
TGI (RXF 393 renal): > 100 µM
TGI (SF-295 CNS): > 100 µM
TGI (UACC-257 melanoma): > 100 µM
TGI (CCRF-CEM leukemia): > 100 µM
TGI (MDA-MB-435): > 100 µM
TGI (OVCAR-8 ovarian): > 100 µM
TGI (SK-MEL-28 melanoma): > 100 µM
TGI (NCI-H460 lung): > 100 µM
TGI (IGROV1 ovarian): > 100 µM
TGI (HL-60(TB) leukemia): > 100 µM
TGI (SNB-19 CNS): > 100 µM
TGI (HOP-62 NSCLC): > 100 µM
TGI (MOLT-4 leukemia): > 100 µM
TGI (TK-10 renal): > 100 µM
TGI (MCF7 breast): > 100 µM
TGI (UACC-62 melanoma): > 100 µM
TGI (NCI-H522 lung): > 100 µM
TGI (LOX IMVI melanoma): > 100 µM
TGI (RPMI-8226 leukemia): 76.3 µM
TGI (SR leukemia): > 100 µM
TGI (A498 renal): > 100 µM
TGI (SK-OV-3 ovarian): > 100 µM
TGI (HS 578T breast): > 100 µM
TGI (786-0 renal): > 100 µM
TGI (SNB-75 CNS): > 100 µM
TGI (OVCAR-3 ovarian): > 100 µM
TGI (U251 CNS): > 100 µM
TGI (KM12 colon): > 100 µM
TGI (BT-549 breast): > 100 µM
TGI (HT29 colon): > 100 µM
TGI (NCI-H226 lung): > 100 µM
TGI (ACHN renal): 60.3 µM
